Columns and labels:
[1] = molecular target: T1, SARS-CoV-2 3CLpro (Severe acute respiratory syndrome coronavirus 2, UniProt P0DTD1); assay: Enzyme kinetics, Lineweaver-Burk plots; type: biochemical; details: 200 nM 3CLpro, inhibitor 5 μM or 10 μM
[2] = molecular target: T1, SARS-CoV-2 3CLpro; assay: Surface plasmon resonance binding to immobilized 3CLpro; details: 0.164-100 μM, 25 °C, n = 3
[3] = molecular target: T1, SARS-CoV-2 3CLpro; assay: Inhibition of cleavage of TriPro substrate protein; type: biochemical; details: 0.8 μM 3CLpro, 1 h preincubation, SDS-PAGE
[4] = molecular target: T1, SARS-CoV-2 3CLpro; assay: FRET-based enzymatic assay of 3CLpro; type: biochemical; details: at 50 μM concentration

CC(C)(C)OC(=O)NCCOc1ccc(Cl)cc1C(=O)NCC(=O)Nc1ccc([N+](=O)[O-])cc1Cl [JMX0301, Tert-Butyl (2-(4-chloro-2-((2-((2-chloro-4-nitrophenyl)amino)-2-oxoethyl)carbamoyl)phenoxy)ethyl)carbamate]
Inhibition Type [1]: Non-competitive | KD (SPR, steady-state affinity model) [2]: did not show binding | Inhibition of cleavage of TriPro substrate protein [3]: inhibited the cleavage of the TriPro substrate protein in a dose dependent manner

Cl.NCCOc1ccc(Cl)cc1C(=O)NCC(=O)Nc1ccc([N+](=O)[O-])cc1Cl [JMX0286, 2-(2-Aminoethoxy)-5-chloro-N-(2-((2-chloro-4-nitrophenyl)amino)-2-oxoethyl)benzamide hydrochloride]
Inhibition Type [1]: Non-competitive | Inhibition of cleavage of TriPro substrate protein [3]: inhibited the cleavage of the TriPro substrate protein in a dose dependent manner

O=C(Nc1ccc([N+](=O)[O-])cc1Cl)c1cc(Cl)ccc1O [niclosamide]
Inhibitory activity against SARS-CoV-2 3CLpro [4]: does not inhibit

Reference: publication PMC9272661 (Antiviral Research, 2022)
